Here are results for 2 compounds from patent publication EP1705169A2, “Triphenylalkene derivatives and their use as selective estrogen receptor modulators” (priority 1999, dated 2001).

In test [1] the test system is ovariectomized rats. The following applies: 3.0 mg/kg peroral daily, 4 weeks, ovariectomized rats (Sham 0.497 ± 0.103; Ovariectomized 0.099 ± 0.016).
For test [2], the system named is ovariectomized (OVX) rats. Briefly: Serum cholesterol level in ovariectomized (OVX) rats after 4 weeks dosing. The format is in vivo, rat. The text has this: (§1) Compounds were given p.o. to female rats for 4 or 5 weeks daily. At the end a blood sample was taken. Serum was separated by centrifugation and frozen until analyzed for total amount of cholesterol. Bone samples were taken from vertebra and tibia. Physical strength of the bones was studied as described by Peng et al, 1994. The assessments of the bone included: • Ash weight of tibial epiphyses • Epiphyses of one tibia was carefully prepared and burned. Samples were burned to remove water and organic material. Ash weight relates to the mineral content of the bone. In addition, bone samples were taken to study the histomorphometry. In some cases the bone formation was studied by injecting tetracycline (50 mg/kg i.p. 10 days before autopsy) and calcein (20 mg/kg i.p. 3 days before autopsy). The method is based on permanent binding of tetracycline into growing bone and its detection by fluorescence (Peng et al, 1994).

Another test has as its system immature female rats. Briefly: 3 day uterotropic assay in immature female rats (given alone and with estradiol). Format: in vivo. The following applies: 3 days, immature female rats. Here is the method: The values are given at two dose levels, low i.e. 3―5 mg/kg and high i.e. 10―50 mg/kg. Estrogenic activity can be estimated also after a 4 weeks' treatment of ovariectomized rats based on the uterine size.

Test [3] relates to ovariectomized rats. Briefly: Strength of femoral neck (cantilever bending test) in ovariectomized rats after 4 weeks dosing. Format: in vivo. The note with it: 3.0 mg/kg p.o., beginning one week after ovariectomy (Sham 86.7 ± 10.4; OVX 68.4 ± 8.5), * = p < 0.05 vs ovariectomized.
Source text: as §1
The mechanical testing of bones was carried out by materials testing machine, constructed in-house at Oulu University (Technical Services Department of the Medical Faculty). The testing machine is based on lever arm principle. One end of a steel lever is fixed. […] Compressive force is measured by a temperature-compensated force sensor, which is attached to the stationary part of the compression stage. […]
The maximal load on the femoral neck was measured by the cantilever bending test. […]

The next test relates to MCF-7 cells. Briefly: cells. The following applies: for cytotoxicity at 10 µM: toxicity at 10 µmol/l, 100 = all cells dead. Here is the method:
For experiments involving hormone or anti-hormone treatment, the cells in exponential growth phase were precultivated in the absence of estradiol for one day. […] After the incubation period the medium was removed. The exposure to study drugs was started immediately by adding fresh medium with 5 % stripped serum. Half of the cells were grown with estradiol, half without estradiol. Study compounds (dissolved in ethanol in 0.01 M concentration and diluted with the growth medium as appropriate) were added. The final concentrations of the compounds were 1,10, and 100 nM, and 1 and 10 µM. The cells were incubated for four days.
This method allows evaluation of estrogenicity based on the ability of the compounds to stimulate the growth of the estrogen-dependent cells in the absence of estradiol. Estrogenicity was estimated by comparing the maximal growth stimulus (at any concentration) of study compound as per cent from growth stimulus by estradiol (100 % stimulus). […] At high concentrations molecules may also show toxicity. Toxicity was estimated as the fraction of dead cells (i.e. 100 % means that all cells have died during the exposure).

In test [4] the test system is ovariectomized rats. Briefly: Ash weight of tibial epiphyses in ovariectomized rats after 4 weeks dosing. The note with it: 3.0 mg/kg p.o., beginning one week after ovariectomy (Sham 34.0 ± 2.9; OVX 32.2 ± 2.8), * = p < 0.05 vs ovariectomized. Format: in vivo.
Source text: as §1

Read-outs that look alike come from different tables or passages of the source.

For the compound `CN(C)CCOc1ccc(/C(=C(/CCCl)c2ccccc2)c2ccc(Cl)cc2)cc1` [No. 3, (E)-(2-{4-[4-Chloro-1-(4-chlorophenyl)-2-phenylbut-1-enyl]phenoxy}-ethyl)dimethylamine], the “Uterine size” value in the test on ovariectomized rats [1] stood at 0.140 ± 0.006 g. Moreover, the “Cholesterol level (mmol/1) in serum” value in test [2] (OVX rat, 3 mg/kg, 4 weeks dosing, n=8 (Sham 3.8 ± 0.4; OVX 4.6 ± 0.7)) turned out to be 3.1 ± 0.4 mmol/1. Moreover, the “Effect on ovariectomy-induced increase of serum cholesterol level (in words)” value in test [2] (OVX rats, 4 weeks dosing) is “can prevent this increase even at very low dose and decrease the level below the sham operated level”. For the same compound, in test [2] (summary statement referring to Table 4), the “Effect on cholesterol (in words)” value is “decrease cholesterol”. Moreover, the results for the “Estrogen antagonism (% inhibition of estradiol) Given with estradiol” value in the test with immature female rats (dose 3–5 mg/kg) and in the test on immature female rats (dose 10–50 mg/kg) were 65 % inhibition of estradiol and 38 % inhibition of estradiol, respectively. The “Uterotropic effect (% of estradiol) Given without estradiol” value in the test with immature female rats (dose 3–5 mg/kg) is 44 % of estradiol; in the test with immature female rats (dose 10–50 mg/kg), 54 % of estradiol. The “Maximal load (N) of femoral neck” value in the test with ovariectomized rats [3] was 92.5±11.1* N. Also, the inhibition at 1 µM in the test on MCF-7 cells (Homo sapiens, MCF7, 96 h, read-out: Antagonism at 1 µM (% of full antagonism)) was found to be 1%. Further, the Emax in the test on MCF-7 cells (Homo sapiens, MCF7, 96 h, read-out: Maximal Agonism (% of E2)) was found to be 1%. Also, the cytotoxicity at 10 µM in the test with MCF-7 cells (Homo sapiens, MCF7, 96 h, read-out: Maximal Cell Kill (% fraction of dead cells), With estradiol (E2)) was found to be 94%; with MCF-7 cells (Homo sapiens, MCF7, 96 h, read-out: Maximal Cell Kill (% fraction of dead cells), Without estradiol (E2)), 100%. Moreover, the “Kill of MCF-7 cells (in words)” value with MCF-7 cells (highest investigated concentration (10 µM), Table 2) was “kill MCF-7 cells (human breast cancer cells) effectively”. Also, the “Hormonal activity (in words)” value in the test on MCF-7 cells (summary statement referring to Table 2) is reported as “weak hormonal activity”. The “Estrogenic and antiestrogenic action (in words)” value in the test with MCF-7 cells (summary statement referring to Tables 2, 3 and 4) was “weak estrogenic and no antiestrogenic action”. Also, the “Ash weight (mg) of tibial epiphyses” value in the test on ovariectomized rats [4] is 36.0±3.4* mg.

For `O=C(c1ccc(OCCN2CCCCC2)cc1)c1c(-c2ccc(O)cc2)sc2cc(O)ccc12` [Raloxifene, reference compound], the “Uterine size” value in the test on ovariectomized rats [1] came out at 0.141 ± 0.021 g. Besides, in the test on immature female rats (dose 3–5 mg/kg), the “Estrogen antagonism (% inhibition of estradiol) Given with estradiol” value is 90 % inhibition of estradiol and the “Uterotropic effect (% of estradiol) Given without estradiol” value is on record as 11 % of estradiol. Moreover, in the test on immature female rats (dose 10–50 mg/kg), the “Estrogen antagonism (% inhibition of estradiol) Given with estradiol” value is recorded as 92 % inhibition of estradiol and the “Uterotropic effect (% of estradiol) Given without estradiol” value is 13 % of estradiol. In addition, in the test on ovariectomized rats [3], the “Maximal load (N) of femoral neck” value is listed as 84.2 ± 18.4* N. In the test on ovariectomized rats [4], the “Ash weight (mg) of tibial epiphyses” value is given as 34.9 ± 3.5 mg.
